Values joined by “and” are separate entries in the source; they are usually repeats but may differ in a detail not shown here. Equal entries are not always repeated.
Key:
HsNMT1 = target: T1, HsNMT1 (Homo sapiens, UniProt P30419); experiment: NMT activity assay (CPM detection of free CoA), HsNMT; conditions: read-out: HsNMT IC50; mean of two or more determinations
T1 sequence (P30419 1-496): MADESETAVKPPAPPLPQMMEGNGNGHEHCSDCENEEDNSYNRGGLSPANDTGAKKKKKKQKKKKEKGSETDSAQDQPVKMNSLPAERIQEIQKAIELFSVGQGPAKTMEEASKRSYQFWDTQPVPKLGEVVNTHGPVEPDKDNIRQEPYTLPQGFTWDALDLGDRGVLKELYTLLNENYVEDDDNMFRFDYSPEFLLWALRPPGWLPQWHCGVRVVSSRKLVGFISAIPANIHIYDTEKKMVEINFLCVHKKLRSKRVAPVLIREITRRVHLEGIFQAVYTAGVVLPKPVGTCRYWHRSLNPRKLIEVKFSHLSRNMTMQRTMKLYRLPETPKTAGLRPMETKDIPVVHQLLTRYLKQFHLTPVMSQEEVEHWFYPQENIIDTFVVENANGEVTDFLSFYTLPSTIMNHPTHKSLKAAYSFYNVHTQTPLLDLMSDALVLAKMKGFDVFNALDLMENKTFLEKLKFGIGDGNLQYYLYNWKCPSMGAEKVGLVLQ

P. vivax hypnozoites = experiment: P. vivax liver stage assay, hypnozoites; type: cell-based, Plasmodium vivax; conditions: for Hypnozoites per well: Isolate 2, replicate wells (Figure 6d); for Number of liverstage hypnozoites per well: 20 µM, 8 dpi
In short: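 Hypnozoite read-out by confocal imaging of PvUIS4/DAPI-stained cultures at day 8 post-infection. Compound was replaced daily starting day 5 in P. vivax-infected single-donor primary human hepatocytes. Positive control: Pi4K inhibitor MMV390048, 20 µM.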

HepG2 cells = experiment: HepG2 cytotoxicity assay (Live/Dead staining); conditions: for Percentage of live HepG2 cells compared with diluent controls: replicates
In short: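 Live/dead fluorescence microscopy (calcein-AM and ethidium homodimer, 1 µM each) read at 72 h post-treatment. Compounds dosed at 1 to 20 µM on HepG2 cells, with washing and fresh compound every 24 h.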

P. falciparum NF54 = experiment: P. falciparum blood stage assay (SYBR Green); type: cell-based, Plasmodium falciparum; conditions: 72 h; for P. falciparum blood-stage development (parasite DNA level fluorescence): untreated = 129
PvNMT = PvNMT (Plasmodium vivax, UniProt A5K1A2); experiment: NMT activity assay (CPM detection of free CoA), PvNMT
PvNMT, sequence (A5K1A2 entry or part of it): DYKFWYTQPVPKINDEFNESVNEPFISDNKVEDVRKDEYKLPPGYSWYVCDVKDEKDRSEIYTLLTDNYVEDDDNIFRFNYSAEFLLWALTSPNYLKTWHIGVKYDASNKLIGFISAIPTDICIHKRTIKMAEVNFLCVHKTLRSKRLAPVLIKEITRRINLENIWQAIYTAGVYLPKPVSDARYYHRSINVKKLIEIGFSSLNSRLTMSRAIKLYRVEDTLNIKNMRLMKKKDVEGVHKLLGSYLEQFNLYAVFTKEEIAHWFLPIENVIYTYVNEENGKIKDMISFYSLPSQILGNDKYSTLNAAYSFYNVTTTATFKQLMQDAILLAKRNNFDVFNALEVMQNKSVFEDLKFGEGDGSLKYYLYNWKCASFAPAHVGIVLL

For `Cc1nn(C)c(C)c1CCOc1ccc2ccccc2c1-c1ccnc(N2CCNCC2)c1` [Compound 30a], the IC50 (HsNMT1) was 24000 nM, the Hypnozoites per well (P. vivax hypnozoites; 1.25 uM) was 6 and 9 and 13 and the Hypnozoites per well (P. vivax hypnozoites; 2.5 uM) was 5 and 0 and 3. The Hypnozoites per well (P. vivax hypnozoites; 5 uM) was 2 (2×) and 0, the Hypnozoites per well (P. vivax hypnozoites; 10 uM) was 1 and 0 and 2 and the “Number of liverstage hypnozoites per well” value (from here on “Number … per well”) (P. vivax hypnozoites; isolate 1, technical replicates (Fig. 6C)) was 0 per well. For the same molecule, the “Number … per well” value (P. vivax hypnozoites; isolate 2, technical replicates (Fig. 6C)) was 0 per well, the “Number … per well” value (P. vivax hypnozoites; isolate 3, technical replicates (Fig. 6C)) was 0 per well and the Hypnozoites per well (P. vivax hypnozoites; 20 uM) was 0. The “hypnozoites (fold change to DMSO) mean diff” value (P. vivax hypnozoites; isolate 1, 20 µM) was 0.954, the “hypnozoites (fold change to DMSO) mean diff” value (P. vivax hypnozoites; isolate 2, 20 µM) was 1.000 and the IC50 (P. vivax hypnozoites; primary human hepatocytes, treatment day 5 to 8 post-infection, isolate 2) was 2100 nM. The IC50 (HepG2 cells) was over 20000 nM, the “Percentage of live HepG2 cells compared with diluent controls” value (from here on “Percentage of live HepG2 cells”) (HepG2 cells; 1 μM) was 103.422% and 100.304% and the “Percentage of live HepG2 cells” value (HepG2 cells; 2.5 μM) was 101.733% and 94.8731%. For the same molecule, the “Percentage of live HepG2 cells” value (HepG2 cells; 5 μM) was 94.7431% and 110.101%, the “Percentage of live HepG2 cells” value (HepG2 cells; 10 μM) was 109.841% and 95.0809% and the “Percentage of live HepG2 cells” value (HepG2 cells; 20 μM) was 87.0514% and 94.4833%. For the same molecule, the “P. falciparum blood-stage development (parasite DNA level fluorescence)” value (“P. falciparum blood-stage development” for short) (P. falciparum NF54; 0.625 uM) was 115.4, the “P. falciparum blood-stage development” value (P. falciparum NF54; 1.25 uM) was 121.5 and the “P. falciparum blood-stage development” value (P. falciparum NF54; 2.5 uM) was 115.2. For the same molecule, the “P. falciparum blood-stage development” value (P. falciparum NF54; 5 uM) was 95.74, the “P. falciparum blood-stage development” value (P. falciparum NF54; 10 uM) was 95.74 and the IC50 (P. falciparum NF54; ring-stage parasites, relative IC50) was 440 nM. It also gave an SI (PvNMT; enzyme selectivity, HsNMT IC50/PvNMT IC50) of 269.8 and an IC50 (PvNMT; read-out: PvNMT IC50, mean of two or more determinations) of 89 nM.

Source: article PMC10480161, “Identification of potent and selective N-myristoyltransferase inhibitors of Plasmodium vivax liver stage hypnozoites and schizonts” (Nature Communications, 2023)
